Experimental data from patent US4115482A, “Stereospecific cis- and trans-vinylic phosphorus esters” (priority 1977, dated 1978).

Assays:
bovine cholinesterase = target: T1, bovine cholinesterase (Bos taurus, UniProt P23795); assay: Cholesterinase placeholder; assay type: biochemical; conditions: for Cholinesterase IC50 (50% inhibiting concentration), after oxidation: after oxidation with peracetic acid in benzene (75°, 20 minutes) to the corresponding monothiophosphate, bovine cholinesterase, 35° C., 30 minutes
T1 construct: Ellman test with acetylthiocholine
T1 sequence (P23795 31-613): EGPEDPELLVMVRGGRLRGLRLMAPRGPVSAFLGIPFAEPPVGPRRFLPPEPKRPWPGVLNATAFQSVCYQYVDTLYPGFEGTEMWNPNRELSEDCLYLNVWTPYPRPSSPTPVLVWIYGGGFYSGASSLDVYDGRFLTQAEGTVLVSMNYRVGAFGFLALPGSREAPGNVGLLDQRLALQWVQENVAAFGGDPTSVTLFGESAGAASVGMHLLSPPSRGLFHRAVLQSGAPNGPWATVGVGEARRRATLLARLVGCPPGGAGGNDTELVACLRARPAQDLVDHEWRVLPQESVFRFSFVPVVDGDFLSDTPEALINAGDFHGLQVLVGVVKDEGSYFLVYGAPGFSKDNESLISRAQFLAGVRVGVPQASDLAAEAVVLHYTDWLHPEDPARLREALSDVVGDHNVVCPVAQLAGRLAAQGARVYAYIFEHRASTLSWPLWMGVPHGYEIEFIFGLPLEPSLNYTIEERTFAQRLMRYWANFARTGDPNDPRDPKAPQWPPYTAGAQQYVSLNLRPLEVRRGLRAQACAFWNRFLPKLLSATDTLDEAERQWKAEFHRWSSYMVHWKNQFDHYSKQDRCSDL
Description: The insecticidal effectiveness of organophosphorus compounds is generally attributed to their inhibition of the cholinesterase enzyme. This inhibiting potency is usually expressed as the concentration of the compound which will reduce the activity of the enzyme by 50%, i.e. […]. The […] values of several cis- and trans-S-propenyl dialkyl dithiophosphates were determined to estimate the relative insecticidal potential of the geometric isomer pairs.
Test Method: To a solution of 0.2 unit of bovine cholinesterase in 2.97 ml of a buffer solution containing 11.15 g of disodium hydrogen phosphate dodecahydrate and 1.81 g of potassium dihydrogen phosphate per liter of water, 0.03 ml of a solution of the dithiophosphate adduct in benzene was added. This mixture was then incubated in a water bath at 35° C. for 30 minutes. One ml of a solution containing 100 mg of 5,5'-dithiobis-(2-nitrobenzoic acid), 100 mg of acetylthiocholine iodide, and 75 ml of the above buffer solution in sufficient water to make 200 ml was then added and the mixture again incubated in a water bath at 35° C. for 30 minutes more. The amount of inhibition of bovine cholinesterase was then determined from the absorbance of this solution at 420 millimicrons. By using a series of solutions of the test chemical at various concentrations in acetone, the concentration needed for 50% inhibition was determined.
The oxidation was carried out with peracetic acid in benzene solution at 75° for 20 minutes. After the removal of the excess peracetic acid, the benzene solution was used for enzyme inhibition as described above.
The median inhibiting concentrations for the cis- and trans-S-propenyl dimethyl and diethyl dithiophosphates are listed in Table II. Data on S-vinyl dimethyl dithiophosphate are also tabulated for comparison.

two spotted spider mite = assay: Systemic miticidal action on potted bean plants (soil treatment); assay type: in vivo; conditions: 20 ml of aqueous emulsion containing 0.05% of the chemical applied to soil, 5 days
Description: For this purpose, a systemic pesticide test on mites was chosen as an example.
Test Method: Potted bean plants were infested with the two spotted spider mite. The soil in the pots was then treated by applying 20 ml of aqueous emulsion containing 0.05% of the chemical. The emulsions were prepared by dissolving the cis- and the trans-compound in acetone and dispersing it in distilled water with Triton X-100. (The emulsifier is an alkylaryl polyether alcohol derived from nonylphenol and ethylene oxide). After the application of the test emulsion, the plants were held for 5 days and then the degree of mite control was rated.

| Compound | Cholinesterase IC50 (50% inhibiting concentration), after oxidation (bovine cholinesterase) | degree of mite control (systemic) (two spotted spider mite) | cholinesterase inhibition, comparison in words (bovine cholinesterase; relative inhibiting potency of isomers, oxidized forms and S-vinyl analog) |
| --- | --- | --- | --- |
| CC=CSP(=S)(OCC)OCC | 4.4e-06 mol/L | – | – |
| C/C=C/SP(=S)(OCC)OCC [Example 1, trans-S-Propenyl O,O'-Diethyl Dithiophosphate] | 1.6e-07 mol/L | – | – |
| C/C=C\SP(=S)(OCC)OCC [Example 2, cis-Propenyl O,O'-Diethyl Dithiophosphate] | 0.00018 mol/L | – | – |
| C/C=C\SP(=S)(OC)OC [Example 3, cis-Propenyl O,O'-Dimethyl Dithiophosphate] | 4.1e-05 mol/L | there were live mites and their nymphs | – |
| C/C=C/SP(=S)(OC)OC [Example 4, trans-S-Propenyl O,O'-Dimethyl Dithiophosphate] | 2.8e-08 mol/L | completely free from mites and nymphs | the substitution of the trans-vinylic hydrogen by a methyl group increases the insecticidal potential |
| C=CSP(=S)(OC)OC [Reference, S-vinyl dimethyl dithiophosphate, reference compound] | 3.1 × 10^ -6 mole/liter | – | – |
